Data reported in patent US20250313535A1, “ALPHA 4 BETA 7 INTEGRIN MODULATORS AND USES THEREOF” (DICE MOLECULES SV, INC., priority 2022, published 2025).

Columns and labels:
Type in all cases: cell-based
α4β7 integrin [1] = target: T1, α4β7 integrin (Homo sapiens (Human), UniProt P13612+P26010); assay: Integrin Adhesion Assay: Protocol 1 (MAdCAM-coated plate, RPMI-8866 cells, CellTiter GLO readout)
Summary of the method: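 RPMI-8866 cells (2×10^6 per mL) added with compounds (1% DMSO) to MAdCAM-coated wells blocked in HEPES/NaCl buffer with 1 mM MnCl2, 0.1 mM CaCl2, 1% BSA; 1 h at 37° C, 5% CO2. After four washes, bound cells read by CellTiter GLO luminescence; % inhibition vs DMSO and control wells, 4-parameter fit.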

α4β1 integrin [2] = target: T2, α4β1 integrin (Homo sapiens (Human), UniProt P05556+P13612); assay: Integrin Adhesion Assay: Protocol 2 (VCAM-coated plate, Jurkat cells, CellTiter GLO readout); conditions: determined by at least one of the assays described (protocol not specified)
Experimental: α4β7 and α4β1 inhibition was evaluated in vitro using at least one of the following procedures:
Integrin Adhesion Assay: Protocol 2
VCAM (R&D Systems, 0.1 ug) was diluted in 50 μL PBS, added to each well of an opaque ELISA plate (Thermo), and incubated overnight at 4° C. Coated plates were washed once with PBS and then blocked with 200 μL of assay buffer (10 mM HEPES, 150 mM NaCl, 1 mM MnCl2, 0.1 mM CaCl2), 1% BSA) for 1 hour at 37° C. and 5% CO2. After incubation, buffer was aspirated from the plates and 50 μL of fresh assay buffer was added. Compounds were added by compounds dispenser (Tecan) and DMSO concentration was normalized to 1% across each plate. 50 μL of Jurkat cells (2×10^6 per mL) were added to each well and the plates were incubated for 1 hour at 37° C. and 5% CO2. After incubation, plates were allowed to cool to RT for 10 minutes before being washed four times in assay buffer by an automated plate washer (BioTek). After washing, 100 μL of a 1:1 mixture of assay buffer and CellTiter GLO 2.0 reagent (Promega) were added to each well. Plates were mixed for 2 minutes at 1000 rpm and then allowed to incubate an additional 10 minutes before reading out luminescence on a Tecan Spark plate reader. Raw data was converted to percent inhibition based on DMSO only and control compound wells, and curves were analyzed by 4-parameter fit within Dotmatics software.

α4β7 integrin [3] = target: T1, α4β7 integrin; assay: Integrin Adhesion Assay: Protocol 4 (MAdCAM-coated plate, RPMI-8866 cells with stable LOF mutation of the ITGB1 gene); conditions: Protocol 4; RPMI-8866 cells with LOF mutation of ITGB1, MAdCAM; read-out: Mean IC50 α4β7 KO
Summary of the method: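 RPMI-8866 cells with CRISPR/Cas9 knockout of ITGB1 (2×10^6/mL) were added to MAdCAM-coated wells with compound (1% DMSO) in HEPES/NaCl buffer with 1 mM MnCl2, 0.1 mM CaCl2 and 1% BSA, then incubated 1 h at 37 °C. After four washes, adherent cells were quantified by CellTiter-Glo luminescence. Percent inhibition versus DMSO and control compound was fitted to 4-parameter curves.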

α4β1 integrin [4] = target: T2, α4β1 integrin; assay: Integrin Adhesion Assay: Protocol 5 (VCAM-coated plate, RPMI-8866 cells with stable LOF mutation of the ITGB7 gene); conditions: Protocol 5; RPMI-8866 cells with LOF mutation of ITGB7, VCAM; read-out: Mean IC50 α4β1 KO
Summary of the method: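 RPMI-8866 B cells with CRISPR/Cas9 ITGB7 knockout (clonal, verified by flow cytometry) adhered to VCAM-coated wells for 1 h at 37° C in HEPES/NaCl buffer with 1 mM MnCl2, 0.1 mM CaCl2, 1% BSA, 1% DMSO. Bound cells quantified by CellTiter-Glo luminescence after washing; % inhibition versus DMSO and control, 4-parameter fit.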

[5] = integrin adhesion assay, determined by at least one of the assays described (protocol not specified)

T2 sequence (P13612 34-1032): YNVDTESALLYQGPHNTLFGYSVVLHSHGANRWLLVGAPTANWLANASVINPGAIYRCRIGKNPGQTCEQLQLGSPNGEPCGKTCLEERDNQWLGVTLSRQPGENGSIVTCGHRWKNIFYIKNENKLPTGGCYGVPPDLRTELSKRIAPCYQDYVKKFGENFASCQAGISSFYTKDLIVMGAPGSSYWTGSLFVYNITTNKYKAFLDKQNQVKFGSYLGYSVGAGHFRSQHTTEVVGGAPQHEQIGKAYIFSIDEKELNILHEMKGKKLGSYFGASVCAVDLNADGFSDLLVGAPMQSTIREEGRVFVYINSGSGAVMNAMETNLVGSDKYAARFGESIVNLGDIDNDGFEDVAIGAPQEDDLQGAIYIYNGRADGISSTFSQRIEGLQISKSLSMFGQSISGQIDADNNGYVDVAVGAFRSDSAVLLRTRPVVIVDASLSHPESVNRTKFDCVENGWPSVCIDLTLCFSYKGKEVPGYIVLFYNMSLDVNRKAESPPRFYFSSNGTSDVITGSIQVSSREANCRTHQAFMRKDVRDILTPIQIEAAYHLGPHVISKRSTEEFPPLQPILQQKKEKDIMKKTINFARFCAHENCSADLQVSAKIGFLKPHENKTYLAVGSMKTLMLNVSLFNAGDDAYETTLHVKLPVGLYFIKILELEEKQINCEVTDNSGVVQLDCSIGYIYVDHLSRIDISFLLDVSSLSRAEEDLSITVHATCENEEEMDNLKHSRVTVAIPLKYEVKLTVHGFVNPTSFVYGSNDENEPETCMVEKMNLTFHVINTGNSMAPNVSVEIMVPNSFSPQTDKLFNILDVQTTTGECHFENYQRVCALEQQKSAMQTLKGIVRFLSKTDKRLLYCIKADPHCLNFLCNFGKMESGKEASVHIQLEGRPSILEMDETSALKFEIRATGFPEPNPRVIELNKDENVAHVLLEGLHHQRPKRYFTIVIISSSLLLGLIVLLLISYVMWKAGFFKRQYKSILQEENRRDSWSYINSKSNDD
T2 sequence (P05556 21-798): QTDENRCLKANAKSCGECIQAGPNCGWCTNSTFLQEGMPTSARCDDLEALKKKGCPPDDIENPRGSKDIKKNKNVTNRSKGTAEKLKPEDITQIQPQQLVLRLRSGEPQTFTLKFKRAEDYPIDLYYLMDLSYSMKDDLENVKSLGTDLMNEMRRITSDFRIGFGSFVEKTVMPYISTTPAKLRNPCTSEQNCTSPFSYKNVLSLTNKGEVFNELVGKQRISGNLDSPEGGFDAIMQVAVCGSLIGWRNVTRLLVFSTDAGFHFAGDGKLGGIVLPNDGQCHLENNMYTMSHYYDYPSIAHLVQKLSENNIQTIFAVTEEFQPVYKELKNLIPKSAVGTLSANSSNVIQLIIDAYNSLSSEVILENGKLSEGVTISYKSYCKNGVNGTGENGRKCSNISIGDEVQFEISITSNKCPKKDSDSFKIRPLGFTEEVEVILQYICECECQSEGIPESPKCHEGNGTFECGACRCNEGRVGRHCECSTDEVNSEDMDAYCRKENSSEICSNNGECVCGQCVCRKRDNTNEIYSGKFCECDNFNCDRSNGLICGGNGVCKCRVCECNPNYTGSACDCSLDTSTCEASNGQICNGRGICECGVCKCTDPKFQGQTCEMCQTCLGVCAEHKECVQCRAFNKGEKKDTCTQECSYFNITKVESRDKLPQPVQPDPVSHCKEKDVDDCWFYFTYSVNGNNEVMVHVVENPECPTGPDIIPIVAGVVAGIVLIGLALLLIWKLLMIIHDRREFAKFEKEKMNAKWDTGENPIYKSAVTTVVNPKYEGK
T1 sequence (P13612 34-1032): as the sequence (P13612 34-1032) above
T1 sequence (P26010 20-798): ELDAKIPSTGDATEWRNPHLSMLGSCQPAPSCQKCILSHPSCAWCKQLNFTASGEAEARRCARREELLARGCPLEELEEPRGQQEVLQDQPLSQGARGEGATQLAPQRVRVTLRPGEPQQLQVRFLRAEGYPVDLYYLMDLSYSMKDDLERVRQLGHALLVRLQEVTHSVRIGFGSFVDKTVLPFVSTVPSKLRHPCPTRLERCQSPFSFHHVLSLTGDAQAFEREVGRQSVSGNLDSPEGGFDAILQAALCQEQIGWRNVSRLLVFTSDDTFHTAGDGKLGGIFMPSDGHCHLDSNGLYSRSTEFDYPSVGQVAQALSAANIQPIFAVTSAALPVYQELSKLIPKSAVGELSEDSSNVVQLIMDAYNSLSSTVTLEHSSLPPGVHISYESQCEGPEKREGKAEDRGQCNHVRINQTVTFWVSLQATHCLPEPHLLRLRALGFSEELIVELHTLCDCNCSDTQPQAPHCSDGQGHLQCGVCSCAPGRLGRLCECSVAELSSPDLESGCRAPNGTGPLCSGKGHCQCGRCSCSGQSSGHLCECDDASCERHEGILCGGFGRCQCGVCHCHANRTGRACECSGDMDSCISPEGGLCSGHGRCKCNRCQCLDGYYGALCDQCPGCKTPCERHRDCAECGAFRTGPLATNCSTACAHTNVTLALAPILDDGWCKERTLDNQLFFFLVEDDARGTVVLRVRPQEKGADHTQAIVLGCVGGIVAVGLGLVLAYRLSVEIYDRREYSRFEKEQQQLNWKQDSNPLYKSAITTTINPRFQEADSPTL

Row | Structure (SMILES) | IC50 (α4β7 integrin [1]; [5]) [nM] | IC50 (α4β1 integrin [2]) [nM] | IC50 (α4β7 integrin [1]; protocol not given) [nM] | IC50 (α4β7 integrin [3]) [nM] | IC50 (α4β1 integrin [4]) [nM]
1 | Cn1ccc(=O)n([C@@H]2CCc3c(C[C@H](NC(=O)c4c(F)cccc4F)C(=O)O)cccc32)c1=O (single isomer, unassigned) [Compound 281] | 10 to 100 | > 1000 |  |  | 
2 | Cn1ccc(=O)n([C@H]2CCc3c(C[C@H](NC(=O)c4c(F)cccc4F)C(=O)O)cccc32)c1=O (single isomer, unassigned) [Compound 282] | 100 to 1000 | > 1000 |  |  | 
3 | Cn1ccc(=O)n(-c2cccc3c(C[C@H](NC(=O)c4c(F)cc(NS(=O)(=O)C(F)(F)F)cc4F)C(=O)O)cccc23)c1=O [Compound 8] | < 10 | 100 to 1000 |  |  | 
4 | Cn1ccc(=O)n(-c2cccc3c(C[C@H](NC(=O)C4(C)CCOCC4)C(=O)O)cccc23)c1=O [Compound 10] | 10 to 100 | 100 to 1000 |  |  | 
5 | Cn1ccc(=O)n(-c2cccc3c(C[C@H](NC(=O)c4c(F)ccc(NS(=O)(=O)C(F)(F)F)c4F)C(=O)O)cccc23)c1=O [Compound 12] | < 10 | 100 to 1000 |  |  | 
6 | Cn1ccc(=O)n(-c2cccc3c(C[C@H](NC(=O)c4c(Cl)cccc4Cl)C(=O)O)cccc23)c1=O [Compound 14] | < 10 | > 1000 |  |  | 
7 | Cn1ccc(=O)n(-c2cccc3c(C[C@H](NC(=O)c4c(F)cc5nn(CC(F)(F)F)cc5c4F)C(=O)O)cccc23)c1=O [Compound 15] | < 10 | 100 to 1000 |  |  | 
8 | Cn1ccc(=O)n(-c2cccc3c(C[C@H](NC(=O)c4c(F)cc5cnn(CC(F)(F)F)c5c4F)C(=O)O)cccc23)c1=O [Compound 16] | < 10 | 100 to 1000 |  |  | 
9 | Cn1ccc(=O)n(-c2cccc3c(C[C@H](NC(=O)C4(C)CCN(CC(F)(F)F)CC4)C(=O)O)cccc23)c1=O [Compound 18] | 10 to 100 | > 1000 |  |  | 
10 | Cn1ccc(=O)n(-c2cccc3c(C[C@H](NC(=O)c4c(F)cc(NCC(F)(F)F)cc4CN4CCOCC4)C(=O)O)cccc23)c1=O [Compound 19] | < 10 | 100 to 1000 |  |  | 
11 | Cn1ccc(=O)n(-c2cccc3c(C[C@H](NC(=O)c4c(F)cc(N5CCOC[C@@H]5C(F)(F)F)cc4CN4CCOCC4)C(=O)O)cccc23)c1=O [Compound 20] | < 10 | 100 to 1000 |  |  | 
12 | CN1CCN(c2cc(F)c(C(=O)N[C@@H](Cc3cccc4c(-n5c(=O)ccn(C)c5=O)cccc34)C(=O)O)c(F)c2)[C@@H](C(F)(F)F)C1 [Compound 21] | 10 to 100 | > 1000 |  |  | 
13 | CN1CCN(Cc2cc(N3CCOC[C@@H]3C(F)(F)F)cc(F)c2C(=O)N[C@@H](Cc2cccc3c(-n4c(=O)ccn(C)c4=O)cccc23)C(=O)O)CC1 [Compound 22] | < 10 | > 1000 |  |  | 
14 | O=C(N[C@@H](Cc1cccc2c(-c3nccc4ccncc34)cccc12)C(=O)O)c1c(F)cc(N2CCOC[C@@H]2C(F)(F)F)cc1F [Compound 23] | < 10 | > 1000 |  |  | 
15 | Cn1ccc(=O)n(-c2cccc3c(C[C@H](NC(=O)c4ccc(C(=O)NCCCCN)nc4)C(=O)O)cccc23)c1=O [Compound 24] | > 1000 | > 1000 |  |  | 
16 | Cn1ccc(=O)n(-c2cccc3c(C[C@H](NC(=O)c4ccc(C(=O)N5CCc6ccccc6C5)nc4)C(=O)O)cccc23)c1=O [Compound 25] | > 1000 | > 1000 |  |  | 
17 | Cn1ccc(=O)n(-c2cccc3c(C[C@H](NC(=O)c4c(F)cc(C(F)(F)F)cc4F)C(=O)O)cccc23)c1=O [Compound 26] | 10 to 100 | > 1000 |  |  | 
18 | CC(C)Oc1cc(F)c(C(=O)N[C@@H](Cc2cccc3c(-n4c(=O)ccn(C)c4=O)cccc23)C(=O)O)c(F)c1 [Compound 30] | 10 to 100 | > 1000 |  |  | 
19 | Cn1ccc(=O)n(-c2cccc3c(C[C@H](NC(=O)c4c(F)cc(CN5CCC5)cc4F)C(=O)O)cccc23)c1=O [Compound 33] | > 1000 | > 1000 |  |  | 
20 | Cn1ccc(=O)n(-c2cccc3c(C[C@H](NC(=O)c4c(F)cc(CN5CCOCC5)cc4F)C(=O)O)cccc23)c1=O [Compound 34] | 100 to 1000 | > 1000 |  |  | 
21 | Cn1ccc(=O)n(-c2cccc3c(C[C@H](NC(=O)C4CCN(CC(F)(F)F)CC4)C(=O)O)cccc23)c1=O [Compound 35] | > 1000 | > 1000 |  |  | 
22 | CCN1CCC(C(=O)N[C@@H](Cc2cccc3c(-n4c(=O)ccn(C)c4=O)cccc23)C(=O)O)CC1 [Compound 36] | > 1000 | > 1000 |  |  | 
23 | O=C(N[C@@H](Cc1cccc2c(-c3nccc4ccncc34)cccc12)C(=O)O)c1c(F)cc(CN2CCC2)cc1F [Compound 37] | > 1000 | > 1000 |  |  | 
24 | O=C(N[C@@H](Cc1cccc2c(-c3nccc4ccncc34)cccc12)C(=O)O)c1c(F)cc(CN2CCOCC2)cc1F [Compound 38] | 100 to 1000 | > 1000 |  |  | 
25 | O=C(N[C@@H](Cc1cccc2c(-c3nccc4ccncc34)cccc12)C(=O)O)c1c(F)cc(N2CCOC[C@@H]2CC(F)F)cc1F [Compound 39] | 10 to 100 | > 1000 |  |  | 
26 | Cn1ccc(=O)n(-c2cccc3c(C[C@H](NC(=O)c4c(F)cc5c(c4F)CS(=O)(=O)N5)C(=O)O)cccc23)c1=O [Compound 43] | < 10 | 100 to 1000 |  |  | 

The remaining lines, values ahead:

Row | IC50 (α4β7 integrin [1]; [5]) [nM] | IC50 (α4β1 integrin [2]) [nM] | IC50 (α4β7 integrin [1]; protocol not given) [nM] | IC50 (α4β7 integrin [3]) [nM] | IC50 (α4β1 integrin [4]) [nM] | Structure (SMILES)
27 | 10 to 100 | 100 to 1000 |  |  |  | Cn1ccc(=O)n(-c2cccc3c(C[C@H](NC(=O)c4c(F)cccc4F)C(=O)O)cccc23)c1=O [Compound 1]
28 | < 10 | > 1000 |  |  |  | O=C(N[C@@H](Cc1cccc2c(-n3c(=O)ccc4cnccc43)cccc12)C(=O)O)c1c(F)cccc1F [Compound 2]
29 | 10 to 100 | > 1000 |  |  |  | Cn1c(=O)c2ccccc2n(-c2cccc3c(C[C@H](NC(=O)c4c(F)cccc4F)C(=O)O)cccc23)c1=O [Compound 3]
30 | 10 to 100 | > 1000 |  |  |  | Cn1c(=O)ccn(-c2cccc3c(C[C@H](NC(=O)c4c(F)cccc4F)C(=O)O)cccc23)c1=O [Compound 4]
31 | 10 to 100 | > 1000 |  |  |  | Cn1ccc(=O)n(-c2cccc3c(C[C@H](NC(=O)c4c(F)cccc4CN4CCC4)C(=O)O)cccc23)c1=O [Compound 7]
32 | < 10 | > 1000 |  |  |  | Cn1ccc(=O)n(-c2cccc3c(C[C@H](NC(=O)c4c(F)cc(NS(=O)(=O)c5ccccc5)cc4F)C(=O)O)cccc23)c1=O [Compound 9]
33 | 10 to 100 | > 1000 |  |  |  | Cc1nccc(F)c1C(=O)N[C@@H](Cc1cccc2c(-n3c(=O)ccn(C)c3=O)cccc12)C(=O)O [Compound 17]
34 | 10 to 100 | > 1000 |  |  |  | Cn1ccc(=O)n(-c2cccc3c(C[C@H](NC(=O)c4c(F)cc5c(ccn5C)c4F)C(=O)O)cccc23)c1=O [Compound 27]
35 | 10 to 100 | > 1000 |  |  |  | COc1cc(F)c(C(=O)N[C@@H](Cc2cccc3c(-n4c(=O)ccn(C)c4=O)cccc23)C(=O)O)c(F)c1 [Compound 28]
36 | 10 to 100 | > 1000 |  |  |  | Cn1ccc(=O)n(-c2cccc3c(C[C@H](NC(=O)c4c(F)ccc(C(F)(F)F)c4F)C(=O)O)cccc23)c1=O [Compound 29]
37 | 10 to 100 | 100 to 1000 |  |  |  | Cn1ccc(=O)n(-c2cccc3c(C[C@H](NC(=O)c4c(F)ccc(OC(F)F)c4F)C(=O)O)cccc23)c1=O [Compound 31]
38 |  |  | 100 to 1000 | > 1000 | > 1000 | CN(C)c1ccc2c(C(F)(F)F)c(-c3cccc4c(C[C@H](NC(=O)c5c(F)cccc5F)C(=O)O)cccc34)c(=O)n(C)c2c1 [Compound 719]
39 |  |  | 10 to 100 | 10 to 100 | > 1000 | O=C(N[C@@H](Cc1cccc2c(-n3cccc(C(F)(F)F)c3=O)cccc12)C(=O)O)c1c(F)cccc1F [Compound 1054]
